Test results taken from PubChem BioAssay AID1845195 (Molecular Pharmacology Branch, DTP, NCI, 2023).

Test system: 156681-154-R-J1 tumor spheroid viability
Experiment: Anticancer human tumor 156681-154-R-J1 patient-derived melanoma cell line growth inhibition
Details: spheroids with HUVEC and MSC; for IC50: curve of first compound; for viability, T/C: stronger effect = lower value
Description: Multicellular complex tumor spheroid response to DNA repair inhibitors in combination with DNA-damaging drugs
This study explores the anticancer activities of DNA-damaging drugs and inhibitors of DNA damage repair, both as single agents and in combinations. Complex tumor spheroids comprised of malignant cells, endothelial cells and mesenchymal stem cells served as an in vitro model for human solid tumors. This model system incorporates physiologically relevant features and patient-derived or established malignant cell lines with clinically relevant genetic alterations from many tumor types. Twenty-six patient-derived or established malignant cell lines were evaluated representing sarcoma, melanoma, small cell lung cancer (SCLC), non-small cell lung cancer (NSCLC), as well as bladder, ovarian and pancreatic cancers. The concentration ranges selected for each drug and investigational agent were based upon clinically achievable concentrations if the clinical Cmax of the agent was known.
Compounds. The drugs and compounds olaparib (NSC753686), talazoparib (NSC767125), berzosertib (NSC777718), elimusertib (NSC800525), nedisertib (NSC802822), VX-984 (NSC792969), AZD-1390 (NSC803789), temozolomide (NSC362856), topotecan (NSC609699), trabectedin (NSC813783), staurosporine (NSC755774), and gemcitabine (NSC613327) were obtained from the National Cancer Institute (NCI) Developmental Therapeutics Program Chemical Repository. The FDA-approved anticancer drug set is available from the Developmental Therapeutics Program at https://dtp.cancer.gov/organization/dscb/obtaining/available_plates.htm. […] The stock solutions were prepared in dimethyl sulfoxide (DMSO, Sigma-Aldrich, St. Louis, MO, cat. D2650) at 400-fold the tested concentration and stored at -70 degrees C. Prior to their use, the stock solutions were diluted in fresh medium and the final DMSO concentration in the assay was 0.25% (v/v). All drugs and investigational agents were tested over a range starting from a high concentration at or near the clinical Cmax and decreasing in half-log increments. If the clinical Cmax for an agent had not been determined, the highest concentration tested was 10 microM.
Cell Lines. The patient-derived cancer cell (PDC) lines: 156681-154-R-J1-PDC, 283228-195-R-J1-PDC, 287954-098-R-J1-PDC, 292921-168-R-J2-PDC, 349418-098-R-PDC, 425362-245-T-J1-PDC, 556581-035-R-J1-PDC, and BL0293-F563-PDC were received from the NCI Patient-Derived Models Repository (PDMR, https://pdmr.cancer.gov). The established cell lines HS-SY-2 (RRID:CVCL_8719), MPNST, and SYO-1 (RRID:CVCL_7146) were obtained from the Sloan Kettering Institute. The alveolar soft parts sarcoma cell line ASPS-1 (RRID:CVCL_S738) was established at the NCI and grown from internal seed stocks. The following established cell lines were purchased from the American Type Culture Collection (ATCC, Manassas, VA): G-401 (ATCC, cat. CRL-1441, RRID:CVCL_0270), SW982 (ATCC, cat. HTB-93, RRID:CVCL_1734), VA-ES-BJ (ATCC, cat. CRL-2138, RRID:CVCL_1785), NCI-H719 (ATCC, cat. CRL-5837, RRID:CVCL_1582), NCI-H196 (ATCC, cat. CRL-5823, RRID:CVCL_1509), NCI-H841 (ATCC, cat. CRL-5845, RRID:CVCL_1595), NCI-H1618 (ATCC, cat. CRL-5879, RRID:CVCL_1480), NCI-H1876 (ATCC, cat. CRL-5902, RRID:CVCL_1503), DMS 114 (ATCC, cat. CRL-2066; RRID:CVCL_1174), NCI-H211 (ATCC, cat. CRL-5824; RRID:CVCL_1529), and SW 1271 (ATCC, cat. CRL-2177, RRID:CVCL_1716). The small cell lung cancer cell line COR-L88 was purchased from Sigma-Aldrich (cat. 92031917-1VL, RRID:CVCL_1141). The non-small cell lung cancer cell lines NCI-H226 (RRID:CVCL_1544) and NCI-H322M (RRID:CVCL_1557) were established at the NCI and grown from internal seed stocks. Pooled donor human umbilical vein endothelial cells (HUVEC, Lonza, cat. CC-2519) and human mesenchymal stem cells (hMSC, Lonza, cat. PT-2501) were purchased from Lonza (Walkersville, MD).
Cell Culture. All cells were maintained in an incubator at 37 degrees C and 5% CO2 with 95% humidity. […]
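Note: spheroids exposed to compounds for 7 days before readout.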
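Throughout, for viability, T/C: percent of vehicle control viability where 100% = DMSO-treated spheroids.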

In the case of `CNCc1ccc(-c2cc(-c3nc(-c4ccc(S(=O)(=O)C(C)C)cc4)cnc3N)on2)cc1` + CC[C@@]1(O)C(=O)OCc2c1cc1n(c2=O)Cc2cc3c(CN(C)C)c(O)ccc3nc2-1, the IC50 (second compound 0.003 µM) is reported as 733 nM, the IC50 (second compound 0.00949 µM) is reported as 451 nM and the IC50 (second compound 0.03 µM) is reported as 296 nM. For the same compound, the IC50 (second compound 0.0949 µM) was < 9.49 nM, the IC50 (second compound 0.3 µM) was < 9.49 nM and the viability, T/C (second compound 0.003 µM, first compound 0.00949 µM) was 103%. It also gave a viability, T/C (second compound 0.003 µM, first compound 0.03 µM) of 93.6%, a viability, T/C (second compound 0.003 µM, first compound 0.0949 µM) of 82.1% and a viability, T/C (second compound 0.003 µM, first compound 0.3 µM) of 65.2%. The viability, T/C (second compound 0.003 µM, first compound 0.949 µM) was 46.8%, the viability, T/C (second compound 0.003 µM, first compound 3 µM) was 20.3% and the viability, T/C (second compound 0.00949 µM, first compound 0.00949 µM) was 136%. It also gave a viability, T/C (second compound 0.00949 µM, first compound 0.03 µM) of 92.3%, a viability, T/C (second compound 0.00949 µM, first compound 0.0949 µM) of 73.8% and a viability, T/C (second compound 0.00949 µM, first compound 0.3 µM) of 58.8%. The viability, T/C (second compound 0.00949 µM, first compound 0.949 µM) was 46.8%, the viability, T/C (second compound 0.00949 µM, first compound 3 µM) was 7.92% and the viability, T/C (second compound 0.03 µM, first compound 0.00949 µM) was 66%. The viability, T/C (second compound 0.03 µM, first compound 0.03 µM) was 60.1%, the viability, T/C (second compound 0.03 µM, first compound 0.0949 µM) was 60.1% and the viability, T/C (second compound 0.03 µM, first compound 0.3 µM) was 50.4%. The viability, T/C (second compound 0.03 µM, first compound 0.949 µM) was 27.5%, the viability, T/C (second compound 0.03 µM, first compound 3 µM) was 7.5% and the viability, T/C (second compound 0.0949 µM, first compound 0.00949 µM) was 17.7%. The viability, T/C (second compound 0.0949 µM, first compound 0.03 µM) was 19.3%, the viability, T/C (second compound 0.0949 µM, first compound 0.0949 µM) was 24.2% and the viability, T/C (second compound 0.0949 µM, first compound 0.3 µM) was 14.5%. It also gave a viability, T/C (second compound 0.0949 µM, first compound 0.949 µM) of 12.8%, a viability, T/C (second compound 0.0949 µM, first compound 3 µM) of 0.15% and a viability, T/C (second compound 0.3 µM, first compound 0.00949 µM) of 31.1%. The viability, T/C (second compound 0.3 µM, first compound 0.03 µM) was 26.9%, the viability, T/C (second compound 0.3 µM, first compound 0.0949 µM) was 24.2% and the viability, T/C (second compound 0.3 µM, first compound 0.3 µM) was 24.2%. For the same compound, the viability, T/C (second compound 0.3 µM, first compound 0.949 µM) was 14.8% and the viability, T/C (second compound 0.3 µM, first compound 3 µM) was 10%.
